From patent US10106501B2, “Nuclear receptor modulators” (AbbVie Inc., priority 2015, dated 2018)

biological target: T1, chimeric human RORγ-Gal4 receptor (Homo sapiens, UniProt P51449); test: transient transactivation assay (RORγ-Gal4 luciferase reporter); assay type: cell-based; settings: Cos-7 cells transfected with RORγ-Gal4 and 5Gal4 pGL3 TK Luc reporter; overnight incubation; T0901317 at 10^-5 M as reference; read-out: IC50
T1 sequence (P51449 269-508 limits assumed): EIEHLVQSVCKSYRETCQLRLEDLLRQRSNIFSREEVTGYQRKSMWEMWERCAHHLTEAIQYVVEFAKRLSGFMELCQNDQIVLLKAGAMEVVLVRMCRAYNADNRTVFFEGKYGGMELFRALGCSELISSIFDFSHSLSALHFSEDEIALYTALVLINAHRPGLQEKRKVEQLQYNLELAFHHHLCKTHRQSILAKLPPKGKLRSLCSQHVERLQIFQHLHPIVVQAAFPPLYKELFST

Row | IC50 | SMILES
1 | < 100 nM | Cc1cc(OC(F)(F)F)cc2ccn(C(=O)c3c(Cl)ccc(C(=O)N4CCC(CC(=O)O)CC4)c3Cl)c12 [EL, 2-(1-(2,4-dichloro-3-(7-methyl-5-(trifluoromethoxy)-1H-indole-1-carbonyl)benzoyl)piperidin-4-yl)acetic acid]
2 | < 100 nM | Cc1cc(OC(F)(F)F)cc2ccn(C(=O)c3c(Cl)ccc(C(=O)N4CC5(CC(CC(=O)O)C5)C4)c3Cl)c12 [EL-1]
3 | < 100 nM | Cc1cc(OC(F)F)cc2ccn(Cc3c(Cl)ccc(C(=O)N4CCC(CC(=O)O)CC4)c3Cl)c12 [EM, 2-(1-(2,4-dichloro-3-((5-(difluoromethoxy)-7-methyl-1H-indol-1-yl)methyl)benzoyl)piperidin-4-yl)acetic acid]
4 | < 100 nM | O=C(O)CC1CCN(C(=O)c2ccc(Cl)c(Cn3ccc4cc(C5CC5)cc(F)c43)c2Cl)CC1 [EN, 2-(1-(2,4-dichloro-3-((5-cyclopropyl-7-fluoro-1H-indol-1-yl)methyl)benzoyl)piperidin-4-yl)acetic acid]
5 | < 100 nM | O=C(O)CC1CCN(C(=O)c2ccc(Cl)c(C(=O)n3ccc4cc(C5CC5)cc(F)c43)c2Cl)CC1 [EO, 2-(1-(2,4-dichloro-3-(5-cyclopropyl-7-fluoro-1H-indole-1-carbonyl)benzoyl)piperidin-4-yl)acetic acid]
6 | < 100 nM | O=C(O)CC1CCN(C(=O)c2ccc(Cl)c(Cn3ccc4cc(C(F)(F)F)cc(F)c43)c2Cl)CC1 [EP, 2-(1-(2,4-dichloro-3-((7-fluoro-5-(trifluoromethyl)-1H-indol-1-yl)methyl)benzoyl)piperidin-4-yl)acetic acid]
7 | < 100 nM | Cc1cn(C(=O)c2c(Cl)ncc(C(=O)N3CCC(CC(=O)O)CC3)c2Cl)c2c(C)cc(C(F)(F)F)cc12 [EQ, 2-(1-(4,6-dichloro-5-(3,7-dimethyl-5-(trifluoromethyl)-1H-indole-1-carbonyl)nicotinoyl)piperidin-4-yl)acetic acid]
8 | < 100 nM | Cc1cn(Cc2c(Cl)ncc(C(=O)N3CCC(CC(=O)O)CC3)c2Cl)c2c(C)cc(C(F)(F)F)cc12 [ER, 2-(1-(4,6-dichloro-5-((3,7-dimethyl-5-(trifluoromethyl)-1H-indol-1-yl)methyl)nicotinoyl)piperidin-4-yl)acetic acid]
9 | < 100 nM | Cc1cc(C(F)(F)F)cc2ccn(C(=O)c3c(Cl)ccc(C(=O)N4CCC(CC(=O)O)CC4)c3Cl)c12 [ES, 2-(1-(2,4-dichloro-3-(7-methyl-5-(trifluoromethyl)-1H-indole-1-carbonyl)benzoyl)piperidin-4-yl)acetic acid]
10 | < 100 nM | Cc1cn(Cc2c(Cl)ccc(C(=O)N3CCOCC3)c2Cl)c2c(C)nc(C(F)(F)F)cc12 [ET, (2,4-dichloro-3-((3,7-dimethyl-5-(trifluoromethyl)-1H-pyrrolo[2,3-c]pyridin-1-yl)methyl)phenyl)(morpholino)methanone]
11 | < 100 nM | Cc1cn(C(=O)c2c(Cl)ccc(C(=O)N3CCC(CC(=O)O)CC3)c2Cl)c2c(C)nc(C(F)(F)F)cc12 [EV, 2-(1-(2,4-dichloro-3-(3,7-dimethyl-5-(trifluoromethyl)-1H-pyrrolo[2,3-c]pyridine-1-carbonyl)benzoyl)piperidin-4-yl)acetic acid]
12 | < 100 nM | Cc1c(C#N)ccc2c1cc(Cc1c(Cl)ccc(C(=O)N3CCOCC3)c1Cl)n2C [EX, 2-(2,6-dichloro-3-(morpholine-4-carbonyl)benzyl)-1,4-dimethyl-1H-indole-5-carbonitrile]
13 | < 100 nM | Cc1c(C#N)ccc2c1cc(Cc1c(Cl)ccc(C(=O)N3CCC(CC(=O)O)CC3)c1Cl)n2C [EY, 2-(1-(2,4-dichloro-3-((5-cyano-1,4-dimethyl-1H-indol-2-yl)methyl)benzoyl)piperidin-4-yl)acetic acid]
14 | < 100 nM | Cn1c(Cc2c(Cl)ccc(C(=O)N3CCOCC3)c2Cl)cc2c(Cl)cc(Cl)cc21 [EZ, (2,4-dichloro-3-((4,6-dichloro-1-methyl-1H-indol-2-yl)methyl)phenyl)(morpholino)methanone]
15 | < 100 nM | Cc1cc(C(F)(F)F)cc2c1cc(Cc1c(Cl)ccc(C(=O)N3CCN(C4COC4)CC3)c1Cl)n2C [Example A1, (2,4-dichloro-3-((1,4-dimethyl-6-(trifluoromethyl)-1H-indol-2-yl)methyl)phenyl)(4-(oxetan-3-yl)piperazin-1-yl)methanone]
16 | < 100 nM | Cc1cc(C(F)(F)F)cc2c1cc(Cc1c(Cl)ccc(C(=O)N3CCC(S(C)(=O)=O)CC3)c1Cl)n2C [Example A1-11]
17 | 100 to 500 nM | Cn1c(Cc2c(Cl)ccc(C(=O)N3CCOCC3)c2Cl)cc2cc(C#N)ccc21 [Example AB, 2-(2,6-dichloro-3-(morpholine-4-carbonyl)benzyl)-1-methyl-1H-indole-5-carbonitrile]
18 | 100 to 500 nM | Cn1c(Cc2c(Cl)ccc(C(=O)N3CCOCC3)c2Cl)cc2ccc(C#N)cc21 [Example AC, 2-(2,6-dichloro-3-(morpholine-4-carbonyl)benzyl)-1-methyl-1H-indole-6-carbonitrile]
19 | 100 to 500 nM | Cc1cc(C#N)cc2c1cc(C(=O)c1c(Cl)ccc(C(=O)N3CCOCC3)c1Cl)n2C [Example AD, 2-(2,6-dichloro-3-(morpholine-4-carbonyl)benzoyl)-1,4-dimethyl-1H-indole-6-carbonitrile]
20 | 100 to 500 nM | Cc1ccc(C(=O)N2CCOCC2)c(C)c1Cc1cc2c(C)cc(C#N)cc2n1C [Example AE, 2-(2,6-dimethyl-3-(morpholine-4-carbonyl)benzyl)-1,4-dimethyl-1H-indole-6-carbonitrile]
21 | 500 to 1000 nM | Cc1cc(C#N)cc2c1cc(Cc1c(Cl)ccc(O[C@H]3CC[C@@H](C(=O)O)CC3)c1Cl)n2C [Example AF1, cis-4-(2,4-dichloro-3-((6-cyano-1,4-dimethyl-1H-indol-2-yl)methyl)phenoxy)cyclohexanecarboxylic acid]
22 | 100 to 500 nM | Cc1cc(C#N)cc2c1cc(Cc1c(Cl)ccc(O[C@H]3CC[C@H](C(=O)O)CC3)c1Cl)n2C [Example AF, trans-4-(2,4-dichloro-3-((6-cyano-1,4-dimethyl-1H-indol-2-yl)methyl)phenoxy)cyclohexanecarboxylic acid]
23 | 500 to 1000 nM | Cc1cc(C#N)cc2c1cc(Cc1c(Cl)ccc(O[C@H]3C[C@@H](C(=O)O)C3)c1Cl)n2C [Example AH1, cis-3-(2,4-dichloro-3-((6-cyano-1,4-dimethyl-1H-indol-2-yl)methyl)phenoxy)cyclobutanecarboxylic acid]
24 | 500 to 1000 nM | Cc1cc(C#N)cc2c1cc(Cc1c(Cl)ccc(O[C@H]3C[C@H](C(=O)O)C3)c1Cl)n2C [Example AH, trans-3-(2,4-dichloro-3-((6-cyano-1,4-dimethyl-1H-indol-2-yl)methyl)phenoxy)cyclobutanecarboxylic acid]
25 | 1000 to 10000 nM | Cc1cc(C#N)cc2c1cc(Cc1c(Cl)ccc(C(=O)N3CCC(OCC(=O)O)CC3)c1Cl)n2C [Example AM, 2-((1-(2,4-dichloro-3-((6-cyano-1,4-dimethyl-1H-indol-2-yl)methyl)benzoyl)piperidin-4-yl)oxy)acetic acid]
26 | < 100 nM | Cc1cc(C#N)cc2c1cc(C(=O)c1c(Cl)ccc(C(=O)N3CCC(O)CC3)c1Cl)n2C [Example AN, 2-(2,6-dichloro-3-(4-hydroxypiperidine-1-carbonyl)benzoyl)-1,4-dimethyl-1H-indole-6-carbonitrile]
27 | 1000 to 10000 nM | Cc1cc(C(F)(F)F)cc2c1cc(C(=O)c1c(Cl)ccc(CO)c1Cl)n2C [Example AR, (2,6-dichloro-3-(hydroxymethyl)phenyl)(1,4-dimethyl-6-(trifluoromethyl)-1H-indol-2-yl)methanone]
